According to US20110288142A1, “CRYSTALLINE N--5-chloro-4-(4-chloro-1-methyl-1H-pyrazol-5-yl)-2-thiophenecarboxamide hydrochloride” (priority 2009, published 2011):

Experiments:
[1] = Solubility in bio-relevant media; format: physicochemical
[2] = Chemical stability of solid form; format: physicochemical; settings: compared with free acid and other salt forms, including the amorphous hydrochloride form
[3] = Hygroscopicity, moisture sorption on VTI instrument SGA 100; settings: for level of hygroscopicity / weight increase of the compound (moisture): 25 °C; for hygroscopicity of the solid form (general statement): hydrochloride
Excerpt: There were 24 Relative Humidity steps used. The Relative Humidity at each step is as follows.

| Structure (SMILES) | solubility in bio-relevant media [1] | chemical stability [2] | level of hygroscopicity ([3]; crystalline form, no drying, 24 relative humidity steps) | weight increase of the compound (moisture) ([3]; crystalline form, no drying, 24 relative humidity steps, 5 to 90) | hygroscopicity of the solid form (general statement) [3] | level of hygroscopicity ([3]; amorphous form, dried at 60 °C, 19 relative humidity steps) | weight increase of the compound (moisture) ([3]; amorphous form, dried at 60 °C, 19 relative humidity steps, 0 to 90) |
| --- | --- | --- | --- | --- | --- | --- | --- |
| Cl.Cn1ncc(Cl)c1-c1cc(C(=O)N[C@H](CN)Cc2cccc(F)c2)sc1Cl [Compound A] | good solubility | improved chemical stability | low level of hygroscopicity | less than 1 % w/w | non-hygroscopic |  |  |
| Cl.Cn1ncc(Cl)c1-c1cc(C(=O)N[C@H](CN)Cc2cccc(F)c2)sc1Cl [Example 3] |  |  |  |  | hygroscopic | high level of hygroscopicity | more than 18 % w/w |
